Reference: patent publication US8017612B2, “Piperazine compound and use thereof as a HCV polymerase inhibitor” (priority 2006, dated 2011)

Key:
[1] = target: T1, HCV polymerase (NS5B) type 1b (Hepatitis C virus genotype 1b, UniProt P26663); experiment: Assay of enzyme (HCV polymerase) inhibitory activity, type 1b enzyme; assay type: biochemical, HCV BK strain (type 1b)
T1 construct: a region encoding NS5B (J Virol 1991 March, 65(3), 1105-13, 544 amino acids after deletion of 47 amino acids on the C-terminal); 6xHis (C); made in house; host or cells: Escherichia coli
Method in brief: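 Polymerase activity was followed as radiolabelled UTP incorporation by E. coli-expressed, His-tagged NS5B of HCV type 1b lacking its last 47 residues. Conditions: 2 μM UTP, 50 μM other NTPs, Mg2+ buffer at pH 7.5, 25 °C for 60 min. Inhibition relative to compound-free reactions gave IC50.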

[2] = target: T2, HCV polymerase (NS5B) type 1a (Hepatitis C virus genotype 1a, UniProt P26664); experiment: Assay of enzyme (HCV polymerase) inhibitory activity, type 1a enzyme; assay type: biochemical, HCV type 1a (cloned from the blood of patients)
T2 construct: made in house; host or cells: Escherichia coli (by the 'similar method' of the 1b enzyme)
Method in brief: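 IC50 values derive from radioactivity of newly synthesized RNA with versus without test compound. The enzyme was C-terminally truncated type 1a NS5B, 1.5 μg/ml, run 60 min at 25° C with 3H-UTP-labelled nucleotides.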

[3] = HCV polymerase inhibitory activity (IC50), 1b, type 1b enzyme 0.5 μg/ml, 25° C., 60 min
[4] = HCV polymerase inhibitory activity (IC50), 1a, type 1a enzyme 1.5 μg/ml, 25° C., 60 min
[5] = HCV polymerase inhibitory activity IC50, 1b, type 1b enzyme
[6] = HCV polymerase inhibitory activity IC50, 1a, type 1a enzyme

Row | Compound | IC50 [1, 3] [nM] | IC50 [2, 4] [nM] | IC50 [1, 5] [nM] | IC50 [2, 6] [nM]
1 | CC(=O)N1CCN(S(=O)(=O)c2ccc(Br)cc2F)[C@@H](C(=O)NCc2ccc(C(C)C)cc2)C1 [Example 419, (R)-4-acetyl-1-(4-bromo-2-fluoro-benzenesulfonyl)-piperazine-2-carboxylic acid 4-isopropyl-benzylamide] | 100 to 1000 | 100 to 1000 |  | 
2 | CC(=O)N1CCN(S(=O)(=O)c2ccc(C(C)C)cc2)C(C(=O)NCc2ccc(Oc3ccccc3)cc2)C1 (centres unmarked) [Example 126, 4-acetyl-1-(4-isopropyl-benzenesulfonyl)-piperazine-2-carboxylic acid 4-phenoxy-benzylamide] | > 1000 | > 1000 |  | 
3 | CC(C)c1ccc(CNC(=O)[C@H]2CN(C(=O)Cn3ccnc3)CCN2S(=O)(=O)c2ccc(C(F)(F)F)cc2)cc1 [Example 219, (R)-4-(2-imidazol-1-yl-acetyl)-1-(4-trifluoromethyl-benzenesulfonyl)-piperazine-2-carboxylic acid 4-isopropyl-benzylamide] | < 100 | < 100 |  | 
4 | Cc1nc(N2CCN(S(=O)(=O)c3ccc(OC(F)(F)F)cc3)[C@@H](C(=O)NCc3ccc(C4CC4)cc3)C2)sc1C(=O)O [Example 383, 2-[(R)-3-(4-cyclopropyl-benzylcarbamoyl)-4-(4-trifluoromethoxy-benzenesulfonyl)-piperazin-1-yl]-4-methyl-thiazole-5-carboxylic acid] | < 100 | < 100 |  | 
5 | CC(C)(C)c1ccc(CNC(=O)[C@H]2CN(c3nc4c(s3)CN(S(C)(=O)=O)CC4)CCN2S(=O)(=O)c2ccc(OC(F)(F)F)cc2)cc1 [Example 600, (R)-4-(5-methanesulfonyl-4,5,6,7-tetrahydro-thiazolo[5,4-c]pyridin-2-yl)-1-(4-trifluoromethoxy-benzenesulfonyl)-piperazine-2-carboxylic acid 4-tert-butyl-benzylamide] | < 100 | < 100 |  | 
6 | Nc1nc(C(F)(F)F)nc2nc(N3CCN(S(=O)(=O)c4ccc(OC(F)(F)F)cc4)[C@@H](C(=O)NCc4ccc(OC(F)(F)F)cc4)C3)sc12 [Example 1021, (R)-4-(7-amino-5-trifluoromethyl-thiazolo[4,5-d]pyrimidin-2-yl)-1-(4-trifluoromethoxy-benzenesulfonyl)-piperazine-2-carboxylic acid 4-trifluoromethoxy-benzylamide] |  |  | < 100 | < 100
7 | CCCc1ccc(CNC(=O)[C@H]2CN(c3cnc(C(=O)O)cn3)CCN2S(=O)(=O)c2ccc(C(C)(C)C)cc2)cc1 [Example 700, (R)-4-(4-tert-butyl-benzenesulfonyl)-3-(4-propyl-benzylcarbamoyl)-3,4,5,6-tetrahydro-2H-[1,2′]bipyrazinyl-5′-carboxylic acid] |  |  | < 100 | < 100
8 | O=C(NCc1ccc(OC(F)(F)F)cc1)[C@H]1CN(c2nc3cn[nH]c(=O)c3s2)CCN1S(=O)(=O)c1ccc(OC(F)(F)F)cc1 [Example 805, (R)-4-(7-oxo-6,7-dihydrothiazolo[4,5-d]pyridazin-2-yl)-1-(4-trifluoromethoxy-benzenesulfonyl)-piperazine-2-carboxylic acid 4-trifluoromethoxy-benzylamide] |  |  | < 100 | < 100
9 | CC(=O)N1CCN(S(=O)(=O)c2ccc(C(C)C)cc2)C(C(=O)NCc2ccc([N+](=O)[O-])cc2)C1 (centres unmarked) [Example 77, 4-acetyl-1-(4-isopropyl-benzenesulfonyl)-piperazine-2-carboxylic acid 4-nitro-benzylamide] | > 1000 | > 1000 |  | 
10 | CCCc1ccc(CNC(=O)[C@H]2CN(C(=O)Nc3nc(CC(=O)OCC)cs3)CCN2S(=O)(=O)c2ccc(OC(F)(F)F)cc2)cc1 [Example 470, (2-{[(R)-3-(4-propyl-benzylcarbamoyl)-4-(4-trifluoromethoxy-benzenesulfonyl)-piperazine-1-carbonyl]-amino}-thiazol-4-yl)-acetic acid ethyl ester] | 100 to 1000 | 100 to 1000 |  | 
11 | CC(=O)N1CCN(S(=O)(=O)c2ccc(C(C)(C)C)cc2)[C@@H](C(=O)NCc2ccc(C(C)C)cc2)C1 [Example 208, (R)-4-acetyl-1-(4-tert-butyl-benzenesulfonyl)-piperazine-2-carboxylic acid 4-isopropyl-benzylamide] | < 100 | < 100 |  | 
12 | CCCc1ccc(S(=O)(=O)N2CCN(C(C)=O)C[C@@H]2C(=O)NCc2ccc(C(C)C)cc2)s1 [Example 287, (R)-4-acetyl-1-(5-propyl-thiophene-2-sulfonyl)-piperazine-2-carboxylic acid 4-isopropyl-benzylamide] | < 100 | < 100 |  | 
13 | CCC(F)(F)c1ccc(CNC(=O)[C@H]2CN(C(=O)CNc3ccn(C)n3)CCN2S(=O)(=O)c2ccc(OC(F)(F)F)cc2)cc1 [Example 734, (R)-4-[2-(1-methyl-1H-pyrazol-3-ylamino)-acetyl]-1-(4-trifluoromethoxy-benzenesulfonyl)-piperazine-2-carboxylic acid 4-(1,1-difluoro-propyl)-benzylamide] |  |  | 100 to 1000 | 100 to 1000
14 | CCCc1ccc(CNC(=O)[C@H]2CN(C(=O)Cn3ccnc3)CCN2S(=O)(=O)c2ccc(OC(F)(F)F)cc2)cc1 [Example 462, (R)-4-(2-imidazol-1-yl-acetyl)-1-(4-trifluoromethoxy-benzenesulfonyl)-piperazine-2-carboxylic acid 4-propyl-benzylamide] | < 100 | < 100 |  | 
15 | O=C(NCc1ccc(OC(F)(F)F)cc1)[C@H]1CN(c2nc3nc(CO)ncc3s2)CCN1S(=O)(=O)c1ccc(C(F)(F)F)cc1 [Example 1052, (R)-4-(5-hydroxymethyl-thiazolo[4,5-d]pyrimidin-2-yl)-1-(4-trifluoromethyl-benzenesulfonyl)-piperazine-2-carboxylic acid 4-trifluoromethoxy-benzylamide] |  |  | < 100 | < 100
16 | CC(=O)N1CCN(S(=O)(=O)c2ccc(OC(C)C)cc2)C(C(=O)NCc2ccc(C(F)(F)F)cc2)C1 (centres unmarked) [Example 83, 4-acetyl-1-(4-isopropoxy-benzenesulfonyl)-piperazine-2-carboxylic acid 4-trifluoromethyl-benzylamide] | > 1000 | > 1000 |  | 
17 | Cc1c(Cl)c(=O)nc2sc(N3CCN(S(=O)(=O)c4ccc(OC(F)(F)F)cc4)[C@@H](C(=O)NCc4ccc(OC(F)(F)F)cc4)C3)nn12 [Example 1026, (R)-4-(6-chloro-5-methyl-7-oxo-7H-[1,3,4]thiadiazolo[3,2-a]pyrimidin-2-yl)-1-(4-trifluoromethoxy-benzenesulfonyl)-piperazine-2-carboxylic acid 4-trifluoromethoxy-benzylamide] |  |  | < 100 | < 100
18 | CC(C)c1ccc(CNC(=O)[C@H]2CN(C(=O)Cn3nnc(CC(=O)O)n3)CCN2S(=O)(=O)c2ccc(C(F)(F)F)cc2)cc1 [Example 310, (2-{2-[(R)-3-(4-isopropyl-benzylcarbamoyl)-4-(4-trifluoromethyl-benzenesulfonyl)-piperazin-1-yl]-2-oxo-ethyl}-2H-tetrazol-5-yl)-acetic acid] | < 100 | 100 to 1000 |  | 
19 | CC(C)c1ccc(CNC(=O)[C@H]2CN(C3=NCCS3)CCN2S(=O)(=O)c2ccc(C(F)(F)F)cc2)cc1 [Example 179, (R)-4-(4,5-dihydro-thiazol-2-yl)-1-(4-trifluoromethyl-benzenesulfonyl)-piperazine-2-carboxylic acid 4-isopropyl-benzylamide] | 100 to 1000 | 100 to 1000 |  | 
